# Results published in patent publication US11377441B2, “Covalent inhibitors of KRAS” (Araxes Pharma LLC, priority 2017, dated 2022).
# Target: T1, KRAS G12C 1-169, his-tagged protein, GDP-loaded (Homo sapiens, UniProt P01116, G12C)
# T1 construct: KRAS G12C 1-169, his-tagged protein, GDP-loaded
# Test: Biochemical assay: covalent modification of KRAS G12C measured by mass spectrometry (RapidFire/TOF or Q-Exactive)
# Type: binding
# Conditions: covalent binding to (modification of) KRAS G12C after a ten minute incubation period
# How it was run: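 GDP-loaded KRAS G12C 1-169 (his-tagged) at 2 μM or 0.5 μM in 20 mM Hepes, 150 mM NaCl, 1 mM MgCl2, incubated with compound at 100, 30 or 10 μM at room temperature for 10 min, 30 min, 2 h or 24 h, then quenched with formic acid. Intact-protein LC-MS, deconvolved; percent modification from modified versus unmodified protein.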
structure (smiles),measurement,value
"C=CC(=O)N1CCN(c2nc(OC[C@@H]3CCCN3C)nc3c(F)c(-c4c(C)ccc5[nH]ncc45)c(Cl)cc23)CC1CC#N (stereo partly drawn) [Compound 271, 2-(1-acryloyl-4-(6-chloro-8-fluoro-7-(5-methyl-1H-indazol-4-yl)-2-(((S)-1-methylpyrrolidin-2-yl)methoxy)quinazolin-4-yl)piperazin-2-yl)acetonitrile]",Binding %,+++ (+++ indicates binding activity greater than 80%)
